Results taken from ChEMBL document CHEMBL1201862, “PubChem BioAssay data set” (2004).
Calls of active or inactive are those of the source.

What was measured:
[1] = biological target: T1, Eukaryotic translation initiation factor 2-alpha kinase 3 (Homo sapiens, UniProt Q9NZJ5); test: Dose response cell-based high-throughput screening assay to measure PERK inhibition. [Related pubchem assays: 1416 ]; assay type: functional
[2] = biological target: T1, Eukaryotic translation initiation factor 2-alpha kinase 3; test: Counterscreen assay for PERK inhibitors: Dose response cell-based high throughput screening assay to measure inhibition of PERK at 6 hours. [Related pubchem assays: 1522, 1416 ]; assay type: functional
[3] = cytotoxicity in HPDE-C7 cells, cell-based, fluorescence, HTS (AID 430); assay type: functional; settings: Homo sapiens
[4] = cytotoxicity in KRAS-transformed pancreatic duct cells, primary screen, cell-based, fluorescence, HTS (AID 431); assay type: functional; settings: Homo sapiens;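 further: cell line used: HPDE-C7K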
[5] = biological target: T2, Estrogen receptor (Homo sapiens, UniProt P03372); test: potentiators of ERα–SRC-1 coactivator binding, dose response, biochemical, TR-FRET, ERα LBD (AID 737)
T2 sequence (P03372 whole entry): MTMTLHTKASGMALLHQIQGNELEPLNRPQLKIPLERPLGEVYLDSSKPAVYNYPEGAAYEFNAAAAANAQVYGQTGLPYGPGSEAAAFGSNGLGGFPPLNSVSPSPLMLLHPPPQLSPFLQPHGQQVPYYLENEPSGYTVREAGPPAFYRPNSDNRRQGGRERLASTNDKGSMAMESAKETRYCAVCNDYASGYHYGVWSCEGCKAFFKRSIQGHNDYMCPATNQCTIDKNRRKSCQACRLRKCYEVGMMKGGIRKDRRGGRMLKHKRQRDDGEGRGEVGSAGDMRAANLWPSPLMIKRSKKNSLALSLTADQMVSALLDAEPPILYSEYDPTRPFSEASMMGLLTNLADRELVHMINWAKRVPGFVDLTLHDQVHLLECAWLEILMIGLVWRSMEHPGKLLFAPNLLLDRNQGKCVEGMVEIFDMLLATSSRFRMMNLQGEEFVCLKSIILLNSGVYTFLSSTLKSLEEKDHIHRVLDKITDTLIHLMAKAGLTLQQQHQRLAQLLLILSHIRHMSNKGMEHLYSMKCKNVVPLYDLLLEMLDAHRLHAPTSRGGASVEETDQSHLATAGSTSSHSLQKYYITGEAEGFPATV

[6] = THP-1 cell cytotoxicity, dose response, cytotoxicity control for non-replicating M. tuberculosis project (AID 489025); assay type: functional
[7] = HepG2 cell cytotoxicity, dose response, cytotoxicity control for non-replicating M. tuberculosis project (AID 489018); assay type: functional; settings: Mycobacterium tuberculosis
[8] = biological target: Hexokinase HKDC1 (Homo sapiens, UniProt Q2TB90); test: HKDC1 hexokinase inhibitors, dose response, biochemical, W721R variant (AID 504729); assay type: functional
[9] = cells; assay type: functional
[10] = biological target: Melanocortin receptor 4 (Homo sapiens, UniProt P32245); test: MC4R antagonist potency on cAMP, dose response, cell-based, TR-FRET, biased antagonists (AID 602298); assay type: functional;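 further: antagonist potency against agonist-stimulated cAMP production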
[11] = Shn3 3'UTR reporter inhibitors, dose response, cell-based, Clone20 osteoblasts, firefly luciferase, cherry-picked (AID 624132); assay type: functional;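 further: firefly luciferase luminescence from reporter carrying the Shn3 3'UTR in osteoblasts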
[12] = HepG2 cell cytotoxicity, dose response, cytotoxicity control for Shn3 inhibitor project, CellTiter-Glo, cherry-picked (AID 624134); assay type: functional, cell-based
[13] = nonselective inhibitors of cellular cAMP signaling, dose response, counter-screen for MC4R biased antagonist project, cell-based, TR-FRET cAMP detection (AID 602305); assay type: functional;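 further: U2OS cells stimulated with forskolin near its EC80 as the cAMP inducer; potency is for inhibition of forskolin-stimulated cAMP signaling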
[14] = biological target: Aspartyl aminopeptidase (Plasmodium falciparum 3D7, UniProt Q8I2J3)
[15] = biological target: Procathepsin L (Homo sapiens, UniProt P07711)
[16] = biological target: Large T antigen (Simian virus 40, UniProt P03070); assay type: functional, Betapolyomavirus macacae;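 further: Confirmatory-stage PubChem screen for compounds that inhibit SV40 T antigen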
[17] = biological target: T3, Mannose-6-phosphate isomerase (Homo sapiens, UniProt P34949); test: inhibitors of human PMI, primary screen, biochemical, fluorescence intensity, coupled assay (AID 1209)
T3 sequence (P34949 whole entry): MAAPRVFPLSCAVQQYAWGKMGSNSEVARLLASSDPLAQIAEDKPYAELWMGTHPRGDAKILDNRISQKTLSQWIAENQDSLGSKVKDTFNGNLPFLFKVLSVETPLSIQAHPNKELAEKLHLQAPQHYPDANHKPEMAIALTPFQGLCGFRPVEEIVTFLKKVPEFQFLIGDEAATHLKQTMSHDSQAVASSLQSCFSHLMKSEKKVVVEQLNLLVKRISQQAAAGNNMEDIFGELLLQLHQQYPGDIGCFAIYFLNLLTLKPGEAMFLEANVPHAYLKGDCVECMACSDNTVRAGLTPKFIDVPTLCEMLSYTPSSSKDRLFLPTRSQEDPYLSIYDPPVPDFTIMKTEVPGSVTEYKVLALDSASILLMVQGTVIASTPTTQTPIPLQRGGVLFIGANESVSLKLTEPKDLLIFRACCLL

[18] = biological target: Induced myeloid leukemia cell differentiation protein Mcl-1 (Homo sapiens, UniProt Q07820); test: MCL1-BIM BH3 interaction inhibitors, dose response, biochemical, fluorescence polarization, BIM-BH3 peptide, 1536-well (AID 2217)
[19] = biological target: Bcl-2-like protein 1 (Homo sapiens, UniProt Q07817); test: BCL-XL inhibitors, dose response, selectivity assay for MCL1 inhibitor project, biochemical, fluorescence polarization, 1536-well (AID 2218)
[20] = biological target: T3, Mannose-6-phosphate isomerase; test: human PMI inhibitors, high substrate, primary screen, biochemical, fluorescence intensity, high mannose 6-phosphate (AID 1220)
[21] = biological target: Dual specificity tyrosine-phosphorylation-regulated kinase 1A (Rattus norvegicus, UniProt Q63470); assay type: biochemical, Homo sapiens
[22] = biological target: T4, Rac GTPase-activating protein 1 (Homo sapiens, UniProt Q9H0H5); test: MgcRacGAP GTPase-activating activity inhibitors, confirmation, biochemical, ADP Hunter fluorescence, primary and confirmatory (AID 624330); assay type: functional
T4 sequence (Q9H0H5 whole entry): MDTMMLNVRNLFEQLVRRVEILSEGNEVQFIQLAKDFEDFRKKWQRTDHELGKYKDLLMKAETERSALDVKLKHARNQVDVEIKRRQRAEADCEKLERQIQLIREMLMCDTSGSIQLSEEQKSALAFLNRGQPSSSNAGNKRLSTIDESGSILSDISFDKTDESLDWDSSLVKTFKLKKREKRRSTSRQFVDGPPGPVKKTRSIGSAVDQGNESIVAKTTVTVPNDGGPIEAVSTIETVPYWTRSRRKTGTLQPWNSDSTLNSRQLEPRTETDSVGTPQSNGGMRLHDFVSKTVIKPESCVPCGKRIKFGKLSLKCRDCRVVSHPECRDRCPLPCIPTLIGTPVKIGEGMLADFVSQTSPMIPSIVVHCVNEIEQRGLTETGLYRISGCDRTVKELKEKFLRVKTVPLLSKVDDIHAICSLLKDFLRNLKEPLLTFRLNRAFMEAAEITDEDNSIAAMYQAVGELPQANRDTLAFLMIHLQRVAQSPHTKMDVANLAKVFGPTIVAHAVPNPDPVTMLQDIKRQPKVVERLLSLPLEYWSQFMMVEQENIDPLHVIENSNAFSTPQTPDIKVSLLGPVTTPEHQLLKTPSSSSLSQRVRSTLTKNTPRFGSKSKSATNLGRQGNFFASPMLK

[23] = biological target: T5, Histone-lysine N-methyltransferase NSD2 (Homo sapiens, UniProt O96028); assay type: biochemical
T5 sequence (O96028 whole entry): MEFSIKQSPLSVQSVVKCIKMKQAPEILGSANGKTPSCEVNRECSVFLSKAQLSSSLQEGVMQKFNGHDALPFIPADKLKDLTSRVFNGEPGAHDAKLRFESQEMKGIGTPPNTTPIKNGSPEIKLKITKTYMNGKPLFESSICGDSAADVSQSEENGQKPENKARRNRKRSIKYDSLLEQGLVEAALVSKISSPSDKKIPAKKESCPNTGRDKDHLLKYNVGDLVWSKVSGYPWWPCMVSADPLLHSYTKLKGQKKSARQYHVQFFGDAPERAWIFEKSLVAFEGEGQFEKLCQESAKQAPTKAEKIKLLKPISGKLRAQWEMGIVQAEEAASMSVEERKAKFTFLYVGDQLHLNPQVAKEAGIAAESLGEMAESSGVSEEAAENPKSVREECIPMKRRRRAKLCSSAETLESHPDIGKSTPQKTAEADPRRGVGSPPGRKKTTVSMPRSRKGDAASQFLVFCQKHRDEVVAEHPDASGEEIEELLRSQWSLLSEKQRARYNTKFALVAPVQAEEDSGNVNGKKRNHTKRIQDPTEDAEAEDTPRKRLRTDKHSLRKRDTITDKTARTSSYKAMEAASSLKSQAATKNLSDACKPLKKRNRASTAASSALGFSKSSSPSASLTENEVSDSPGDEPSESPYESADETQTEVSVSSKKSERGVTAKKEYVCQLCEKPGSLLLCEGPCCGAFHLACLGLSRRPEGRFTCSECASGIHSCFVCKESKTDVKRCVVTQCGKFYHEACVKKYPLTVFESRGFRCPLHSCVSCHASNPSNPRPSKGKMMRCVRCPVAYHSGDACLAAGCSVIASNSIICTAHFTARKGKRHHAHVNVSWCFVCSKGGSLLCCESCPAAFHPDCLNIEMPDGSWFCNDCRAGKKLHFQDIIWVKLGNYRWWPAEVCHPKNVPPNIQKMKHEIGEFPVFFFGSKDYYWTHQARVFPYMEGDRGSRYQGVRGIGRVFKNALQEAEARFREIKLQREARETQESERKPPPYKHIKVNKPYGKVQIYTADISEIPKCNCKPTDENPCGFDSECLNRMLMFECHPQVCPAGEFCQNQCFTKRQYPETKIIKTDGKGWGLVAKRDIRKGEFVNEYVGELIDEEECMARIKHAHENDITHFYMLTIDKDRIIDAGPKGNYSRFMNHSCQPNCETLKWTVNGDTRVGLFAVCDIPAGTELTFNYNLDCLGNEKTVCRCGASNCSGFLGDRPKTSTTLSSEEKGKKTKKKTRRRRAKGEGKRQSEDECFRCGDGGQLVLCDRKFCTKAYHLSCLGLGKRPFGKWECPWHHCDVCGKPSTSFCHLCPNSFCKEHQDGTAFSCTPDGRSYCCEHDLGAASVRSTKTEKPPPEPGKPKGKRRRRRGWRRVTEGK

T1 sequence (Q9NZJ5 whole entry): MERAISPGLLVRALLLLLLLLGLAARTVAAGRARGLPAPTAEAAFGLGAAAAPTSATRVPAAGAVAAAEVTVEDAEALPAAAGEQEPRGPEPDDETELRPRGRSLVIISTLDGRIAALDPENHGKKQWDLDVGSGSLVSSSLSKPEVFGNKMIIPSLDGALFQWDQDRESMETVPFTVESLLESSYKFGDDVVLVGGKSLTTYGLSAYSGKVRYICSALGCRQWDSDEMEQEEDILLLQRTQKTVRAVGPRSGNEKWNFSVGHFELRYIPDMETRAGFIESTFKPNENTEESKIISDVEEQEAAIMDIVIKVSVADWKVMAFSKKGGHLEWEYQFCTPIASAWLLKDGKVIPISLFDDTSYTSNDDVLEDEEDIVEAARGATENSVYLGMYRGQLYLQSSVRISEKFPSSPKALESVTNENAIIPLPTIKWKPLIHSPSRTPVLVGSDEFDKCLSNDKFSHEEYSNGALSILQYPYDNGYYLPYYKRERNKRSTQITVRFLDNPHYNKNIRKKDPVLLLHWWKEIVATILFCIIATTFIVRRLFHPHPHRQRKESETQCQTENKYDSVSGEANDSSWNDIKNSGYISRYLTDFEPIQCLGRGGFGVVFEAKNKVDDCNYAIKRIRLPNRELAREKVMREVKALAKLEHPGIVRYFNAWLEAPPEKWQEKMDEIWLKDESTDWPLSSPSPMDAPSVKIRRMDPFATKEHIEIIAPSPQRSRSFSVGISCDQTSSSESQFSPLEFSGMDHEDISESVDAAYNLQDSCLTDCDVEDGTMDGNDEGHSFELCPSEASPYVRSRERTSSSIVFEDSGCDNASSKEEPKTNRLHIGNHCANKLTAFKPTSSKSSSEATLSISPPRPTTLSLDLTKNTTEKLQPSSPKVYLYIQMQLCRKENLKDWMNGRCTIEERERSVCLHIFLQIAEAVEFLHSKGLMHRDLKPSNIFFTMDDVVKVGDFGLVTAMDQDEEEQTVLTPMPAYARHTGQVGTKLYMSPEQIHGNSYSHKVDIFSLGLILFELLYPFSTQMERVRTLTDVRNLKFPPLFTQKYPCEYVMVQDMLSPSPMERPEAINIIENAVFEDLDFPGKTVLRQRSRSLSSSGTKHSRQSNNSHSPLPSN
Sequence of Hexokinase HKDC1 (Q2TB90 whole entry): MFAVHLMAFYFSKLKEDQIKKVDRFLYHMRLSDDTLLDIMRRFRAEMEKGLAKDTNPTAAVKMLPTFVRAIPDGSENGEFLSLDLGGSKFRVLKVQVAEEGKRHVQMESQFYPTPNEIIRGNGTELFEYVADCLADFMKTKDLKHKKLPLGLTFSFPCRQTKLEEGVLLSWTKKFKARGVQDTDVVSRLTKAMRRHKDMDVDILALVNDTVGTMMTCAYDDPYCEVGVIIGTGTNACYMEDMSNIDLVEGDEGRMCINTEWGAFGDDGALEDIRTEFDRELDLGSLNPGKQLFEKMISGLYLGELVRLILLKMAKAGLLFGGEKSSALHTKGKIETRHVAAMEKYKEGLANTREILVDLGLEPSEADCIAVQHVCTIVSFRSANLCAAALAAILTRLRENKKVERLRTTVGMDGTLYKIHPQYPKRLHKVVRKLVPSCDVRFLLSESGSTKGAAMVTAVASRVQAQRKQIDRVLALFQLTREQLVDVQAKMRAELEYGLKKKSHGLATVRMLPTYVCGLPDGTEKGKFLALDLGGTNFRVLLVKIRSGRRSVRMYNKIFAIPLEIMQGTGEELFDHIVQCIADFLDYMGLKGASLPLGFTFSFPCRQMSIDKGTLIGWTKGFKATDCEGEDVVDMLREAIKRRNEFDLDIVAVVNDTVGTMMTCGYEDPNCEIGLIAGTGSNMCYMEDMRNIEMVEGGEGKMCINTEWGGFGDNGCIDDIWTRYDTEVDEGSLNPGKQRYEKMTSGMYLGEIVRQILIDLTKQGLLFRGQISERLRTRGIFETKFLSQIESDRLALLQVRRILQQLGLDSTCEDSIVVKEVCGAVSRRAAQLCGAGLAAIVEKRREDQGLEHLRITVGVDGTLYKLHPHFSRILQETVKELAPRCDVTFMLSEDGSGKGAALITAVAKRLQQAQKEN
Sequence of Aspartyl aminopeptidase (Q8I2J3 whole entry): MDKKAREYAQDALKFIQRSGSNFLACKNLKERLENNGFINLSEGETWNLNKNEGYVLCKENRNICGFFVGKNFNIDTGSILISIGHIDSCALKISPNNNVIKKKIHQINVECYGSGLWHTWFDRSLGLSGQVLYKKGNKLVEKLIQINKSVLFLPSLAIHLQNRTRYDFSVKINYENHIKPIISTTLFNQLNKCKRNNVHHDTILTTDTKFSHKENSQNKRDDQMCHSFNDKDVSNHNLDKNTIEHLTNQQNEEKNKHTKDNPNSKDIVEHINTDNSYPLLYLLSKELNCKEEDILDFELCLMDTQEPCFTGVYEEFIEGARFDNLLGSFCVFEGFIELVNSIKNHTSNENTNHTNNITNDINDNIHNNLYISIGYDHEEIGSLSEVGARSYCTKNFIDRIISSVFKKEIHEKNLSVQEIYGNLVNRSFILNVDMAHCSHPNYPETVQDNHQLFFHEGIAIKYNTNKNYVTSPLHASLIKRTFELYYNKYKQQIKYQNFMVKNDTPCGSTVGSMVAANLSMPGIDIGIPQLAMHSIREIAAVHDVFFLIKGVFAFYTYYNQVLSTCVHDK
Sequence of Large T antigen (P03070 whole entry): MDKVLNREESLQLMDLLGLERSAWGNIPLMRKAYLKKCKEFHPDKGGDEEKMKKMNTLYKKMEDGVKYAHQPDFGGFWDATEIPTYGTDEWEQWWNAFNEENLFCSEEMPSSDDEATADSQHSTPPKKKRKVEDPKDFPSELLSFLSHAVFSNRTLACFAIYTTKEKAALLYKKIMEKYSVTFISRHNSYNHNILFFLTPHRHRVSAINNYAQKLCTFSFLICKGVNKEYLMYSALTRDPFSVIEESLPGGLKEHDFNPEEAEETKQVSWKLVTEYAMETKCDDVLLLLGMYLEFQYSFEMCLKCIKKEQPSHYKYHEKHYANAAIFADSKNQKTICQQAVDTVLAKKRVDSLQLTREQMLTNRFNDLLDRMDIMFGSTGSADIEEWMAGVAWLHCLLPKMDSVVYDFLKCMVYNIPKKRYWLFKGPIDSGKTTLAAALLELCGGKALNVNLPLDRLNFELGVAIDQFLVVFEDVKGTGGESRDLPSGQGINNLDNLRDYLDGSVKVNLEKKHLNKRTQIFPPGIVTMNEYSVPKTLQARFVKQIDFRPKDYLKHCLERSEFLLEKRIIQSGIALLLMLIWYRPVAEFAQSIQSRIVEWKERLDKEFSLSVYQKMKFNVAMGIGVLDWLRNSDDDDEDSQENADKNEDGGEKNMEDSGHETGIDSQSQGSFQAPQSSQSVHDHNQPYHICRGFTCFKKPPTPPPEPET
Sequence of Bcl-2-like protein 1 (Q07817 whole entry): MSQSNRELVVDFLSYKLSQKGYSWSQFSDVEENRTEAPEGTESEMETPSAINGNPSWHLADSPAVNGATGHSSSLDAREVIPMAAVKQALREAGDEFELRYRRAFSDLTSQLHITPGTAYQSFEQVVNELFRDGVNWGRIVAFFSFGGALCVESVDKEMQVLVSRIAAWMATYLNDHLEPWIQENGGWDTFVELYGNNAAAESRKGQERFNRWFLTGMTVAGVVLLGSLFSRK
Sequence of Melanocortin receptor 4 (P32245 whole entry): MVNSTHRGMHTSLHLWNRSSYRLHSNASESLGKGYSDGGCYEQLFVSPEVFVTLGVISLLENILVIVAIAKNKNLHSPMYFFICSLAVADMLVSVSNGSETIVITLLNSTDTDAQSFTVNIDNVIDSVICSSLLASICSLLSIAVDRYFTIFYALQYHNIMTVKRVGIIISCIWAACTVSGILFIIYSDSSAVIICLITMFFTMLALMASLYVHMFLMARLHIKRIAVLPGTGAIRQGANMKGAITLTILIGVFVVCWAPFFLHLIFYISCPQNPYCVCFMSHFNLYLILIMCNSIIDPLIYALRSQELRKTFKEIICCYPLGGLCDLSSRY
Sequence of Procathepsin L (P07711 whole entry): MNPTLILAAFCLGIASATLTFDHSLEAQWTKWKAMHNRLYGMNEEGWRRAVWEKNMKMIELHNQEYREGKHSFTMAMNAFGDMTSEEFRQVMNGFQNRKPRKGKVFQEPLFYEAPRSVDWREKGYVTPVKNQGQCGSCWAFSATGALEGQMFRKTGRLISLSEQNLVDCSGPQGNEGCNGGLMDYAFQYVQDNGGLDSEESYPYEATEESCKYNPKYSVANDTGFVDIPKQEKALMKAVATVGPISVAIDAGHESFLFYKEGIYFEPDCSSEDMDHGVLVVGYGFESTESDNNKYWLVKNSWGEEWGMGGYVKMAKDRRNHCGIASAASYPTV
Sequence of Induced myeloid leukemia cell differentiation protein Mcl-1 (Q07820 whole entry): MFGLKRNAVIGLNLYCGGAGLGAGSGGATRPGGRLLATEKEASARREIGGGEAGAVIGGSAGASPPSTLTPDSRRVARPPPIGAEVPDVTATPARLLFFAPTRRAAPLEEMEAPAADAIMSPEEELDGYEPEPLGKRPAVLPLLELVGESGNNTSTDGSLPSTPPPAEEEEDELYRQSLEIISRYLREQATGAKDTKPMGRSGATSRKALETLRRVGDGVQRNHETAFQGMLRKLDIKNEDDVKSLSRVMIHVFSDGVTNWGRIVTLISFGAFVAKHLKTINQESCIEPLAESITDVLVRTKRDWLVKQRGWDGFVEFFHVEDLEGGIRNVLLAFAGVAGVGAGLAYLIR

C=CCNC(=O)Nc1ccc(F)cc1F
EC50 [1]: > 55.7 µM (not active) | EC50 [2]: > 55.7 µM (not active)

CCN(CC)c1ccc2c(c1)oc(=O)c1c(Cl)cc(=O)oc12
EC50 [3]: 14.2 µM (active) | EC50 [4]: 12.1 µM (active) | EC50 [5]: 14.6 µM (active) | CC50 [6]: > 40 µM (active) | CC50 [7]: 11.7 µM (active) | IC50 [8]: 22.4 µM (inactive) | IC50 [9]: 14.6 µM (active) | IC50 [10]: > 64.6 µM (inactive) | AC50 [11]: 2.22 µM (active) | AC50 [12]: 8.09 µM (active) | IC50 [13]: > 64.6 µM (inactive)

Oc1ccc(C2=Nn3c(nnc3-c3ccco3)SC2)cc1O
IC50 [14]: 1.84 µM (active) | IC50 [15]: > 59.6 µM (not active) | IC50 [16]: 3.26 µM (active) | IC50 [17]: > 50 µM (not active) | IC50 [18]: 6.16 µM (active) | IC50 [19]: 68.7 µM (not active) | IC50 [20]: > 50 µM (not active) | AC50 [21]: 4.01 µM (active) | IC50 [22]: 12.2 µM (active) | AC50 [23]: 6.4 µM (active)
